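Dose response: 5 concentrations. Exposure: 48 h. Format: 96-well plates. Endpoint: linear interpolation; highest concentration if not reached. GI50 = concentration required for 50% inhibition of growth.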 Activity calls are given as the source filed them. Cut-off read from the data, not from the text of the source: active = GI50 up to about 1.1 µM and inactive = higher.

Among the test systems are SW-620; SNB-19; OVCAR-3; PC-3; UACC-62; HOP-92; NCI-H23; U-251; Hs-578T; SNB-75; NCI-H460; MOLT-4; SF-539; EKVX; A549; HCC 2998; OVCAR-4; 786-0; OVCAR-8; IGROV-1.
Assay in all cases: NCI tumour cell line growth inhibition, 48 h

With `Cc1cc(=O)c2ccccc2n1CCCCCCCCCCn1c(C)cc(=O)c2ccccc21`, the GI50 in the assay on SW-620 is 20.4 µM (inactive); in the assay with SNB-19 it was 18.1 µM (inactive); with OVCAR-3 it was 37.3 µM (inactive); in the assay on PC-3, 28.8 µM (inactive); in the assay with UACC-62 it was 17.1 µM (inactive); in the assay on HOP-92, 22.4 µM (inactive). For the same compound, the GI50 is 3.94 µM (inactive) with NCI-H23; 15.6 µM (inactive) with U-251; 23.8 µM (inactive) with Hs-578T; 30.2 µM (inactive) with SNB-75; 15.7 µM (inactive) with NCI-H460; 8.69 µM (inactive) in the assay on MOLT-4. The GI50 in the assay on SF-539 is 25.8 µM (inactive); in the assay with EKVX, 11.7 µM (inactive); in the assay with A549 it was 20 µM (inactive); with HCC 2998, 11.8 µM (inactive); in the assay on OVCAR-4 it was 15.4 µM (inactive); in the assay on 786-0, 16.4 µM (inactive). The GI50 in the assay on OVCAR-8 is 16.8 µM (inactive); in the assay on IGROV-1, 17.2 µM (inactive).
With `CN(C)CCCNC(=O)c1cc(NS(=O)(=O)c2ccc3c(c2)C(=O)c2ccccc2C3=O)cn1C`, the GI50 in the assay with SW-620 was 46.3 µM (inactive); in the assay with SNB-19, 12.8 µM (inactive); in the assay on OVCAR-3 it was 13.5 µM (inactive); with PC-3 it was 33.3 µM (inactive); with UACC-62, 20.8 µM (inactive); in the assay on HOP-92, 32.1 µM (inactive). In addition, the GI50 was 24.1 µM (inactive) in the assay on NCI-H23; 29.1 µM (inactive) in the assay with U-251; 76.4 µM (inactive) with Hs-578T; 30.8 µM (inactive) with SNB-75; 18.8 µM (inactive) in the assay with NCI-H460; 32.7 µM (inactive) with MOLT-4. Besides, the GI50 is 42.8 µM (inactive) with SF-539; > 100 µM (inactive) in the assay on EKVX; 35.9 µM (inactive) in the assay with A549; 24.5 µM (inactive) with HCC 2998; 16.8 µM (inactive) with OVCAR-4; 28.7 µM (inactive) in the assay on 786-0. Besides, the GI50 in the assay on OVCAR-8 is 40.3 µM (inactive); with IGROV-1, 33 µM (inactive).
With `Cn1c(=O)c2c(O)cc(N)nc2n(C)c1=O`, the GI50 was > 100 µM (inactive) in the assay on SW-620; > 100 µM (inactive) in the assay on SNB-19; > 100 µM (inactive) in the assay with OVCAR-3; > 100 µM (inactive) in the assay with PC-3; > 100 µM (inactive) in the assay with UACC-62; 67.3 µM (inactive) in the assay with HOP-92. For the same compound, the GI50 in the assay on NCI-H23, in the assay on U-251, in the assay with Hs-578T, in the assay on SNB-75, in the assay on NCI-H460 and in the assay with MOLT-4 was > 100 µM (inactive) each time. The GI50 in the assay with SF-539, in the assay with EKVX, with A549, in the assay with HCC 2998, in the assay on OVCAR-4 and in the assay on 786-0 was > 100 µM (inactive) throughout. The GI50 in the assay on OVCAR-8 was 63.4 µM (inactive); with IGROV-1, > 100 µM (inactive).
As to `COc1ccc(-c2cc(-c3ccc(C)cc3)n(C3OC(COC(C)=O)C(OC(C)=O)C(OC(C)=O)C3OC(C)=O)c(=S)c2C#N)cc1` (stereo not given), the GI50 in the assay with SW-620 is > 100 µM (inactive); in the assay with SNB-19, 90.6 µM (inactive); in the assay on OVCAR-3, > 100 µM (inactive); with PC-3, > 100 µM (inactive); with UACC-62, > 100 µM (inactive); with HOP-92, > 100 µM (inactive). Also, the GI50 in the assay on NCI-H23 was > 100 µM (inactive); with U-251 it was 50.1 µM (inactive); in the assay with Hs-578T it was 36.6 µM (inactive); with SNB-75, 27 µM (inactive); in the assay on NCI-H460 it was > 100 µM (inactive); with MOLT-4, > 100 µM (inactive). Besides, the GI50 was 57.5 µM (inactive) in the assay on SF-539; > 100 µM (inactive) in the assay with EKVX; > 100 µM (inactive) with A549; > 100 µM (inactive) in the assay on HCC 2998; 29.2 µM (inactive) in the assay with OVCAR-4; > 100 µM (inactive) in the assay with 786-0. The GI50 in the assay with OVCAR-8 and in the assay with IGROV-1 was > 100 µM (inactive) each time.
Take `N#Cc1nc(C(F)(F)F)oc1N`: the GI50 in the assay on SW-620, in the assay with SNB-19, in the assay with OVCAR-3, with PC-3, in the assay with UACC-62 and in the assay on HOP-92 was > 100 µM (inactive) in each case. The GI50 with NCI-H23, in the assay with U-251, in the assay with Hs-578T, with SNB-75, in the assay with NCI-H460 and with MOLT-4 was > 100 µM (inactive) throughout. In addition, the GI50 with SF-539, in the assay on EKVX, in the assay on A549, with HCC 2998, in the assay with OVCAR-4 and in the assay with 786-0 was > 100 µM (inactive) in each case. For the same compound, the GI50 in the assay with OVCAR-8 and in the assay on IGROV-1 was > 100 µM (inactive) each time.
Take `COc1ccc(Nc2nc3ccccc3nc2-c2cccs2)cc1OC`: the GI50 with SW-620 was > 10 µM (inactive); in the assay with SNB-19, > 10 µM (inactive); in the assay with OVCAR-3, > 10 µM (inactive); with PC-3, 9.35 µM (inactive); with UACC-62, > 10 µM (inactive); in the assay on HOP-92, > 10 µM (inactive). Further, the GI50 in the assay on NCI-H23, in the assay with U-251, with Hs-578T, in the assay with SNB-75, with NCI-H460 and in the assay with MOLT-4 was > 10 µM (inactive) each time. The GI50 with SF-539, in the assay with EKVX, in the assay on A549, in the assay on HCC 2998, in the assay with OVCAR-4 and in the assay on 786-0 was > 10 µM (inactive) each time. For the same compound, the GI50 with OVCAR-8 and with IGROV-1 was > 10 µM (inactive) throughout.
`CCOC(=O)c1c(-c2ccccc2)[nH]c2ccc(Cl)cc2c1=O`: the GI50 in the assay on SW-620 is > 100 µM (inactive); in the assay with SNB-19 it was > 100 µM (inactive); in the assay on OVCAR-3, 19.5 µM (inactive); in the assay with PC-3, 41.1 µM (inactive); with UACC-62, 37.7 µM (inactive); in the assay with HOP-92 it was 22 µM (inactive). Also, the GI50 with NCI-H23 is 41.1 µM (inactive); in the assay with U-251, 41.6 µM (inactive); in the assay on Hs-578T, 35.4 µM (inactive); with SNB-75, 45.8 µM (inactive); in the assay with NCI-H460 it was 30.3 µM (inactive); with MOLT-4, 28.3 µM (inactive). In addition, the GI50 is 29.9 µM (inactive) in the assay on SF-539; 54.6 µM (inactive) in the assay with EKVX; 36.6 µM (inactive) with A549; 37.9 µM (inactive) in the assay on HCC 2998; 20.5 µM (inactive) in the assay on OVCAR-4; 38.7 µM (inactive) in the assay with 786-0. Besides, the GI50 in the assay with OVCAR-8 was 31.8 µM (inactive); in the assay with IGROV-1, 29.6 µM (inactive).
With `C=C1C(=O)O[C@H]2[C@H]3O[C@@H](C[C@@H]12)[C@@]1(C)CC[C@H](O1)C(C)=CCC[C@H]3C`, the GI50 with SW-620 was 1.26 µM (inactive); with SNB-19, 6.35 µM (inactive); in the assay on OVCAR-3, 1.37 µM (inactive); in the assay with PC-3, 1.49 µM (inactive); in the assay on UACC-62, 1.53 µM (inactive); with HOP-92, 1.55 µM (inactive). Moreover, the GI50 was 1.53 µM (inactive) with NCI-H23; 1.61 µM (inactive) in the assay with U-251; 2.65 µM (inactive) in the assay with Hs-578T; 1.73 µM (inactive) in the assay with SNB-75; 2.07 µM (inactive) with NCI-H460; 1.26 µM (inactive) in the assay with MOLT-4. The GI50 with SF-539 was 1.55 µM (inactive); with EKVX, 1.52 µM (inactive); in the assay on A549 it was 2.25 µM (inactive); in the assay on HCC 2998 it was 1.75 µM (inactive); in the assay with OVCAR-4 it was 1.59 µM (inactive); with 786-0 it was 1.31 µM (inactive). The GI50 with OVCAR-8 was 1.44 µM (inactive); in the assay with IGROV-1, 1.53 µM (inactive).
On to `CC(=O)NCc1nc(C#N)c(N)o1`, for which the GI50 in the assay on SW-620, in the assay on SNB-19, in the assay on OVCAR-3, in the assay on PC-3, in the assay with UACC-62 and with HOP-92 was > 100 µM (inactive) each time. For the same compound, the GI50 in the assay on NCI-H23, in the assay with U-251, in the assay with Hs-578T, in the assay on SNB-75, with NCI-H460 and in the assay with MOLT-4 was > 100 µM (inactive) throughout. In addition, the GI50 in the assay with SF-539, in the assay with EKVX, with A549, in the assay on HCC 2998, in the assay on OVCAR-4 and with 786-0 was > 100 µM (inactive) in each case. Further, the GI50 with OVCAR-8 was > 100 µM (inactive); with IGROV-1, 8.95 µM (inactive).
As for `COC(=O)/C(C#N)=C/c1cc(C(C)(C)C)c(O)c(C(C)(C)C)c1`, the GI50 with SW-620 is 3.03 µM (inactive); in the assay with SNB-19, 3.17 µM (inactive); in the assay with OVCAR-3, 1.45 µM (inactive); in the assay with PC-3 it was 2.11 µM (inactive); in the assay on UACC-62, 1.76 µM (inactive); in the assay with HOP-92, 0.662 µM (active). Further, the GI50 in the assay on NCI-H23 was 1.42 µM (inactive); in the assay with U-251, 2.26 µM (inactive); in the assay on Hs-578T it was 3.55 µM (inactive); in the assay with SNB-75 it was 3.3 µM (inactive); with NCI-H460, 1.95 µM (inactive); in the assay on MOLT-4, 2.2 µM (inactive). The GI50 was 3.27 µM (inactive) in the assay on SF-539; 2.33 µM (inactive) in the assay with EKVX; 2.64 µM (inactive) with A549; 2.7 µM (inactive) in the assay on HCC 2998; 1.85 µM (inactive) in the assay with OVCAR-4; 3.15 µM (inactive) in the assay with 786-0. In addition, the GI50 in the assay with OVCAR-8 is 2.99 µM (inactive); with IGROV-1, 4.55 µM (inactive).
